Experimental data published in US20050171206A1, “Therapeutical use” (priority 2004, published 2005).
Values joined by “and” are separate entries in the source; they are usually repeats but may differ in a detail not shown here. Equal entries are not always repeated.

Key:
Type in all cases: in vivo, human
[1] = system: children with SMA II older than 5 years (muscle strength); test: Myometry, hand held electronic myometer (Example 2); set-up: myometry: unit not given here; details: for myometry: individual children
Experimental: The sodium salt of phenylbutyrate (triButyrate®) was administered orally in powder or tablets at 500 mg/kg/d (maximum dose 19 g/d), divided in 5 doses (every 4 hours except for an 8 hours night interval). An intermittent schedule (7 days on and 7 days off) was arbitrarily chosen, similarly to a previously reported schedule for treatment of sickle cell disease. (Atweh G F, Sutton M, Nassif I, Boosalis V, Dover G J, Wallen-stein S, Wright E, McMahon L, Stamatoyannopoulos G, Faller D V, Perrine S P Blood.1999;93:1790-97.) When this dosage was tolerated, patients were advised to continue for 9 weeks (5 weeks on and 4 weeks off).
The assessment consisted of a detailed clinical physiotherapy evaluation including the Hammersmith functional motor scale and, in children older than 5 years, assessment of muscle strength and of forced vital capacity.
Measurements lasted 3 to 5 seconds. The scores were grouped in a leg mega score and arm megascore by adding the best readings for each individual muscle within the subgroup and subdividing this score by the number of muscles examined. Intra-observer variation performed before the implementation of the study was less than 5%. Both myometry and measurement of joint contractures were performed by the same physiotherapist.

[2] = system: SMN full length (SMN-fl) transcripts (SMN2 gene expression) in leukocytes; test: SMN full length transcripts in leukocytes by real-time RT-PCR during one week of oral triButyrate (Example 1)
Experimental: Six SMA patients (P1-P6) and three parents (M2, M3, F6) were enrolled for a pilot trial. Four patients had SMA type II (P1-P4). P1 is a child who had lost the ability to sit unaided. P3 is […] and P4 and P5 are both […]. Two patients (P5 and P6) had SMA type III. The trial was approved by the Ethical Committee of the Catholic University. A written informed consent was obtained from all patients/parents. triButyrate®, the sodium salt of phenylbutyrate was administered at 500 mg/kg/d (maximum dose 19 g/d), divided in 6 doses(every 4 hours) for 7 days. Blood samples were taken from patients and parents on day 0 (T0, baseline) and on days 1-4 (T1-T4) and 7 (T7) of drug administration, and from 5 healthy untreated controls on 5 consecutive days (T0-T4). Total RNA was extracted by Trizol from leukocytes immediately after hypotonic lysis of samples.
SMN full length (SMN-fl) transcripts were measured by realtime RT-PCR using ABI-PRISM 7700 Sequence Detector System (Applied Biosystems) as described elsewhere. (Andreassi C, Angelozzi C, Tiziano F D, Vitali T, De Vincenzi E, Boninsegna A, Villanova M, Bertini E, Pini A, Neri G, Brahe C. Eur. J. Hum. Genet. 2004; 12:59-65) Transcripts were amplified at least twice in triplicate or quadruplicate. SMN transcript levels were calculated by comparing SMN versus glyceraldehyde-3-phosphate dehydrogenase transcripts, whose expression is not affected by triButyrate®. (Andreassi C, Angelozzi C, Tiziano F D, Vitali T, De Vincenzi E, Boninsegna A, Villanova M, Bertini E, Pini A, Neri G, Brahe C. Eur. J. Hum. Genet. 2004; 12:59-65) The relative amounts of SMN-fl transcripts in samples obtained from treated patients/parents and untreated controls were normalized versus those of T0.
F of Fisher, ANOVA and T of Student for independent variables tests were performed to assess statistical significance by using Winstat 4.01 and SPSS 10.0.1 for Windows software. P values <0.05 were accepted as significant.

[3] = system: children with SMA II; test: Side effects (Example 2)
Experimental: The sodium salt of phenylbutyrate (triButyrate®) was administered orally in powder or tablets at 500 mg/kg/d (maximum dose 19 g/d), divided in 5 doses (every 4 hours except for an 8 hours night interval). An intermittent schedule (7 days on and 7 days off) was arbitrarily chosen, similarly to a previously reported schedule for treatment of sickle cell disease.

With O=C([O-])CCCc1ccccc1.[Na+] [triButyrate®, Sodium 4-phenylbutyrate] the “myometry, patients with increase” value ([1]; 4 patients older than 5 years) was “clear increase in 3 of the 4”, the myometry ([1]; T1, 3 weeks) was 0.18 and 0.41 and 0.09 and 0.38 and the myometry ([1]; T2, 9 weeks) was 0.17 and 0.45 and 0.09 and 0.46. For the same compound, the “relative SMN-fl transcript levels during administration compared to baseline” value ([2]; all patients, one or more blood samples) was “significant increase”, the “Percent SMN-fl transcripts variation versus T0, T1 mean(+-SD)” value ([2]; day 1 of 500 mg/kg/d oral, leukocytes, individual patients P1-P6 and parents M2, M3, F6, 500 mg/kg/day) was “+53 (0.1) % and −1 (0.0) % and +54 (0.2) % and +68 (0.0) % and +65 (0.1) % and +117 (1.0) % and +280 (0.7) % and +73 (0.0) % and +432 (0.2) %” and the “Percent SMN-fl transcripts variation versus T0, T2 mean(+-SD)” value ([2]; day 2 of 500 mg/kg/d oral, leukocytes, individual patients/parents, 500 mg/kg/day) was “+184 (0.6) % and +35 (0.3) % and +25 (0.1) % and +14 (0.0) % and −2 (0.0) % and +96 (0.1) % and +27 (0.0) % and +63 (0.1) %”. For the same compound, the “Percent SMN-fl transcripts variation versus T0, T3 mean(+-SD)” value ([2]; day 3 of 500 mg/kg/d oral, leukocytes, individual patients/parents, 500 mg/kg/day) was “+7 (0.2) % and +131 (0.5) % and +116 (0.0) % and −37 (0.0) % and +197 (0.7) % and −15 (0.1) % and +21 (0.1) % and +82 (0.2) %”, the “Percent SMN-fl transcripts variation versus T0, T4 mean(+-SD)” value ([2]; day 4 of 500 mg/kg/d oral, leukocytes, individual patients/parents, 500 mg/kg/day) was “+120 (0.4) % and −3 (0.0) % and +21 (0.0) % and +156 (0.2) % and +363 (0.6) % and +387 (0.9) % and −18 (0.2) % and +129 (0.3) % and +190 (0.5) %” and the “Percent SMN-fl transcripts variation versus T0, T7 mean(+-SD)” value ([2]; day 7 of 500 mg/kg/d oral, leukocytes, individual patients/parents, 500 mg/kg/day) was “+827 (1.9) % and +155 (0.1) % and −15 (0.4) % and +190 (0.2) % and +71 (0.3) % and +333 (0.5) % and +56 (0.2) %”. The “increase in SMN-fl transcripts in at least one blood sample during treatment” value ([2]; in all patients) was “more than 100%”, the tolerability ([3]; 500 mg/kg/d oral, intermittent, 9 weeks) was “generally well tolerated” and the stomach ache ([3]; after the second dose, did not recur) was “Three very young children complained of stomach ache”. The “children who found the taste of the drug very unpleasant” value ([3]; children who completed the trial) was “Eight of the 10”, the “children who reported an unpleasant odour when sweating” value ([3]; of the eight who found the taste unpleasant) was “seven” and the “adverse event leading to discontinuation” value ([3]; one child, after the second week of treatment started) was “skin rash”.
